The nature of data set [1]: (§1) Cytotoxicity against human BEL-7404 cells after 48 hrs by MTT assay. The format is functional, cell-based. The note with it: BEL-7404, 48 h.
Data set [2] in a line: Cytotoxicity against human Chang cells after 48 hrs by MTT assay. The format is cell-based. For orientation: Formazan colour is commonly taken as a measure of viable cells.
The next data set has as its system SK-HEP1. Nature of the data set: Cytotoxicity against human SKHep1 cells after 48 hrs by MTT assay. The format is functional, cell-based. The note with it: for IC50: SK-HEP1, 48 h.
For another data set, the system named is B16. Nature of the data set: Cytotoxicity against […] B16 cells after 48 hrs by MTT assay. The conditions noted are these: Mus musculus; for IC50: B16, 48 h. The format is functional, cell-based.
In the next data set the test system is BEL-7404. The description is as §1. The format is functional, cell-based.

One may read the IC50 as the concentration that gives 50% inhibition.

Molecules are shown by their SMILES. Activity calls are given as the source filed them. The calls are words filed in the database; no cut-off is given here.

Regarding `CCCCCCCCCC[C@H](O)COCCOC[C@@H](O)CCCCCCCCCCCCC1=C[C@H](C)NC1=O`, the 50% inhibitory concentration (IC50) in data set [1] amounted to 2200 nM; with B16, 35 nM. For the same compound, the Activity entry in data set [2] was “Not Active”. Also, in the data set on SK-HEP1, the result was inactive.
On to `CCCCCCCCCC[C@H](O)COCCOC[C@@H](O)CCCCCCCCCCCCC1=C[C@H](C)OC1=O`, for which the IC50 in data set [1] was found to be 41 nM; in the data set with SK-HEP1, 65 nM; with B16 it was 35 nM. Moreover, the Activity result in data set [2] is “Not Active”.
The like results for `CCCCCCCCCC[C@H](O)COCCOC[C@@H](O)CCCCCCCCCCCCC1=C[C@H](C)N(C)C1=O` were, in that order, 234 nM, 589 nM, 13 nM and “Not Active”.
In data set [1], `CCCCCCCCCC[C@H](O)COCCOC[C@@H](O)CCCCCCCCCCCCC1=C[C@H](C)N(CCCNC(=O)CCCCCNC(=O)CCCCCNC(=O)OC(C)(C)C)C1=O` yielded an IC50 of 2500 nM. Also, in data set [2], the Activity entry was “Not Active”. Further, the outcome with SK-HEP1 and in the data set with B16 was inactive.
For `CCCCCCCCCC[C@H](O)COCCOC[C@@H](O)CCCCCCCCCCCCC1=C[C@H](C)N(CCCNC(=O)CCCCCNC(=O)OC(C)(C)C)C1=O`, in data set [1], the midpoint of inhibition, the IC50, lay at 3200 nM. In addition, the Activity result in data set [2] was “Not Active”. For the same compound, the outcome with SK-HEP1 and in the data set on B16 was inactive.
In the case of `CCCCCCCCCC[C@H](O)COCCOC[C@@H](O)CCCCCCCCCCCCC1=C[C@H](C)N(CCCNC(=O)C(F)(F)F)C1=O`, the values for the half-inhibitory concentration (IC50) (in data set [1]; with B16) were 1350 nM and 995 nM, respectively. Also, in data set [2], the Activity entry is reported as “Not Active”. In addition, the result in the data set on SK-HEP1 was inactive.
On to `CCCCCCCCCC[C@H](O)COCCOC[C@@H](O)CCCCCCCCCCCCC1=CCN(C)C1=O`, for which the IC50 in data set [1] came to 168 nM; in the data set with SK-HEP1, 104 nM; in the data set on B16, 168 nM. Moreover, in data set [2], the Activity result is given as “Not Active”.
In the case of `CCCCCCCCCC[C@H](O)COCCOC[C@@H](O)CCCCCCCCCCCCC1=CC(C)(C)N(C)C1=O`, the concentration for half-maximal inhibition (IC50) in data set [1] was found to be 845 nM; in the data set with SK-HEP1, 583 nM; with B16 it was 478 nM. Further, the Activity result in data set [2] was “Not Active”.
Take `CCCCCCCCCC[C@H](O)COCCOC[C@@H](O)CCCCCCCCCCCCC1=C[C@H](C)N(CCCNC(=O)CCCCCNC(=S)Nc2ccc3c(c2)C(=O)OC32c3ccc(O)cc3Oc3cc(O)ccc32)C1=O`: the outcome in the data set with BEL-7404, in the data set with SK-HEP1 and with B16 was inactive. The Activity result in data set [2] is given as “Not Active”.

For the origin of these results see ChEMBL document CHEMBL1139936, “Annonaceous acetogenin mimics bearing a terminal lactam and their cytotoxicity against cancer cells” (Bioorg Med Chem Lett, 2007).
